Data on one compound can be found in patent US20090196942A1, “TOPICAL COMPOSITIONS CONTAINING CITRUS JABARA EXTRACT” (priority 2008, published 2009).

The assay has as its system rat basophil leukemia cells (line RBL-2H3). Kind of assay: Histamine release from calcium ionophore A23187-stimulated RBL-2H3 cells (Histamine ELISA). It counts as cell-based. The conditions noted are these: Calcium Ionophore 2 μM, supernatant histamine by ELISA. As to the method: Citrus Jabara extract was tested to determine its effectiveness in blocking histamine release. Histamine is released by skin and tissues in response to immune challenge. Ingredients that will block the release of histamine improve the soothing properties of skin care products into which they are incorporated. To perform the test, rat basophil leukemia cells (line RBL-2H3) were grown in Dulbecco's Modified Eagle Medium (DMEM) with 10% heat inactivated fetal calf serum, and seeded in 24 well plates at 2.5×10^5 cells/well. The cells were grown overnight and the culture media was removed from the wells and replaced with 1 ml of PIPES buffer (100 mM NaCl, 5 mM KCl, 0.4 mM MgCl2, 1 mM CaCl2, and 5.6 mM D-glucose), pH 7.2. This buffer is known to reduce the spontaneous release of histamine. Stock solutions were prepared: (1) Positive Control: A 10 mM stock solution of diosmetin in DMSO; (2) Active: Citrus Jabara powder—100 mg/ml in DMSO; (3) Calcium Ionophore: 2 mM in DMSO (Sigma Calcium Ionophore A23187). The Control was added to four separate wells varying the final concentration of the Control in each well to 1, 3, 10, and 30 μM. The Active was added to four other wells in varying percentage concentrations ranging from 0.01%, .05%, 0.1%, and 0.5% w/v in each plate. One well was left untreated with cells only. Another single well contained DMSO at a final concentration of less than 1% v/v. […]

On to `COc1ccc(-c2cc(=O)c3c(O)cc(O)cc3o2)cc1O` [diosmetin], for which the inhibition at 30 µM worked out at 85%.

In general, inhibition refers to the percentage by which the read-out fell short of the control.
